In PMC6154534, “New Benzimidazole-1,2,4-Triazole Hybrid Compounds: Synthesis, Anticandidal Activity and Cytotoxicity Evaluation” (Molecules : A Journal of Synthetic Chemistry and Natural …, 2017):
In brackets after ≈: the same amount, converted by molar mass.

Assays:
[1] = tested on: C. parapsilosis (ATCC 22019); test: Anticandidal broth microdilution (EUCAST EDef 7.1), resazurin fluorometric readout; format: cell-based; settings: Lodderomyces parapsilosis, ATCC22019; ATCC 22019, RPMI pH 7, 24 h incubation; read-out: MIC50 C. parapsilopsis
Protocol: (§1) Synthesized compounds (5a-5ad) were evaluated for anticandidal activity against C. albicans (ATCC 24433), C. krusei (ATCC 6258), C. parapsilosis (ATCC 22019) and C. [NT] 90030). MIC50 values were evaluated via fluorometric measurements, using resazurin solution [56, 57]. […] [NT] 90030). MIC readings were carried out twice for each chemical agent. The yeasts were maintained in RPMI after overnight incubation at 37 °C. The inocula of test microorganisms adjusted to match the turbidity of a MacFarland 0.5 standard tube as determined with a spectrophotometer and the final inoculum size was 0.5-2.5 × 10^5 cfu/mL for antifungal assay. Testing was carried out in RPMI at pH = 7 and the two-fold serial dilutions technique was applied. The last well on the microplates containing only inoculated broth was kept as controls and the last well with no growth of microorganism was recorded to represent the MIC50 expressed in μg/mL. For the antifungal assays, the compounds were dissolved in DMSO. […] The completed plates were incubated for 24 h. At the end of the incubation, resazurin (20 μg/mL) was added into each well to control whether the growth in wells. Then, plates were allowed to incubate for 2 h. MIC50 values were determined using a microplate reader at […].

C. albicans (ATCC 24433) = test: as above; format: cell-based; settings: Candida albicans, ATCC24433; ATCC 24433, RPMI pH 7, 24 h incubation
Protocol: as §1

C. krusei (ATCC 6258) = test: as above; format: cell-based; settings: Pichia kudriavzevii, ATCC6258; ATCC 6258, RPMI pH 7, 24 h incubation
Protocol: as §1

C. glabrata (ATCC 90030) = test: as above; format: cell-based; settings: Nakaseomyces glabratus, ATCC90030; ATCC 90030, RPMI pH 7, 24 h incubation
Protocol: as §1

Candida species = test: Anticandidal broth microdilution, results summarised over all strains; format: cell-based; settings: summary over all four Candida strains; for MIC50: Candida, read-out: MIC50 against Candida species
Protocol: as §1

Structure (SMILES)	MIC50 [1] [µg/mL]	MIC50 (C. albicans (ATCC 24433)) [µg/mL]	MIC50 (C. krusei (ATCC 6258)) [µg/mL]	MIC50 (C. glabrata (ATCC 90030)) [µg/mL]	melting point [°C]	MIC50 (Candida species) [µg/mL]	anticandidal activity against Candida strains (in words) (Candida species)
CCn1c(SCC(=O)c2ccc(Cl)cc2Cl)nnc1-c1ccc(-c2nc3ccccc3[nH]2)cc1 [Compound 5i, 2-((5-(4-(1H-Benzimidazol-2-yl)phenyl)-4-ethyl-4H-1,2,4-triazol-3-yl)thio)-1-(2,4-dichlorophenyl)ethan-1-one]	50 (≈ 98.3 µM)	25 (≈ 49.2 µM)	50 (≈ 98.3 µM)	50 (≈ 98.3 µM)	221.7	–	–
Cn1c(SCC(=O)c2ccc(Cl)cc2Cl)nnc1-c1ccc(-c2nc3ccc(Cl)cc3[nH]2)cc1 [Compound 5n, 2-((5-(4-(6-Chloro-1H-Benzimidazol-2-yl)phenyl)-4-methyl-4H-1,2,4-triazol-3-yl)thio)-1-(2,4-dichlorophenyl)ethan-1-one]	3.12 (≈ 5.9 µM)	1.56 (≈ 2.95 µM)	1.56 (≈ 2.95 µM)	3.12 (≈ 5.9 µM)	274.2	1.56 to 3.12 (≈ 2.95 to 5.9 µM)	–
CCn1c(SCC(=O)c2ccc(F)cc2F)nnc1-c1ccc(-c2nc3ccccc3[nH]2)cc1 [Compound 5j, 2-((5-(4-(1H-Benzimidazol-2-yl)phenyl)-4-ethyl-4H-1,2,4-triazol-3-yl)thio)-1-(2,4-difluorophenyl)ethan-1-one]	25 (≈ 52.6 µM)	12.5 (≈ 26.3 µM)	12.5 (≈ 26.3 µM)	25 (≈ 52.6 µM)	238.2	–	–
CCn1c(SCC(=O)c2ccccc2)nnc1-c1ccc(-c2nc3ccccc3[nH]2)cc1 [Compound 5f, 2-((5-(4-(1H-Benzimidazol-2-yl)phenyl)-4-ethyl-4H-1,2,4-triazol-3-yl)thio)-1-phenylethan-1-one]	100 (≈ 228 µM)	100 (≈ 228 µM)	100 (≈ 228 µM)	100 (≈ 228 µM)	220.9	–	–
CCn1c(SCC(=O)c2ccc(Cl)cc2)nnc1-c1ccc(-c2nc3ccc(F)cc3[nH]2)cc1 [Compound 5aa, 1-(4-Chlorophenyl)-2-((4-ethyl-5-(4-(6-fluoro-1H-benzimidazol-2-yl)phenyl)-4H-1,2,4-triazol-3-yl)thio)ethan-1-one]	12.5 (≈ 25.4 µM)	6.25 (≈ 12.7 µM)	6.25 (≈ 12.7 µM)	12.5 (≈ 25.4 µM)	241.4	–	did not show strong activity
CCn1c(SCC(=O)c2ccccc2)nnc1-c1ccc(-c2nc3ccc(F)cc3[nH]2)cc1 [Compound 5z, 2-((4-Ethyl-5-(4-(6-fluoro-1H-benzimidazol-2-yl)phenyl)-4H-1,2,4-triazol-3-yl)thio)-1-phenylethan-1-one]	50 (≈ 109 µM)	12.5 (≈ 27.3 µM)	50 (≈ 109 µM)	25 (≈ 54.6 µM)	253.6	–	–
CC(=O)N1CCN(c2ccc(OCC3COC(Cn4ccnc4)(c4ccc(Cl)cc4Cl)O3)cc2)CC1 (stereo not shown) [Ketoconazole, reference compound]	1.56 (≈ 2.94 µM)	0.78 (≈ 1.47 µM)	1.56 (≈ 2.94 µM)	1.56 (≈ 2.94 µM)	–	–	–
CCn1c(SCC(=O)c2ccccc2)nnc1-c1ccc(-c2nc3ccc(Cl)cc3[nH]2)cc1 [Compound 5p, 2-((5-(4-(6-Chloro-1H-benzimidazol-2-yl)phenyl)-4-ethyl-4H-1,2,4-triazol-3-yl)thio)-1-phenylethan-1-one]	25 (≈ 52.7 µM)	12.5 (≈ 26.4 µM)	50 (≈ 105 µM)	12.5 (≈ 26.4 µM)	248.5	–	did not show strong activity
Cn1c(SCC(=O)c2ccc(Cl)cc2Cl)nnc1-c1ccc(-c2nc3ccc(F)cc3[nH]2)cc1 [Compound 5x, 1-(2,4-Dichlorophenyl)-2-((5-(4-(6-fluoro-1H-benzimidazol-2-yl)phenyl)-4-methyl-4H-1,2,4-triazol-3-yl)thio)ethan-1-one]	3.12 (≈ 6.09 µM)	3.12 (≈ 6.09 µM)	3.12 (≈ 6.09 µM)	1.56 (≈ 3.04 µM)	228.5	–	–
OC(Cn1cncn1)(Cn1cncn1)c1ccc(F)cc1F [Fluconazole, reference compound]	0.78 (≈ 2.55 µM)	0.78 (≈ 2.55 µM)	1.56 (≈ 5.09 µM)	1.56 (≈ 5.09 µM)	–	–	–

More lines, main results first:

MIC50 [1] [µg/mL]	MIC50 (C. albicans (ATCC 24433)) [µg/mL]	MIC50 (C. krusei (ATCC 6258)) [µg/mL]	MIC50 (C. glabrata (ATCC 90030)) [µg/mL]	melting point [°C]	MIC50 (Candida species) [µg/mL]	Structure (SMILES)	anticandidal activity against Candida strains (in words) (Candida species)
25 (≈ 54.6 µM)	12.5 (≈ 27.3 µM)	12.5 (≈ 27.3 µM)	25 (≈ 54.6 µM)	231.3	–	CCn1c(SCC(=O)c2ccc(F)cc2)nnc1-c1ccc(-c2nc3ccccc3[nH]2)cc1 [Compound 5h, 2-((5-(4-(1H-Benzimidazol-2-yl)phenyl)-4-ethyl-4H-1,2,4-triazol-3-yl)thio)-1-(4-fluorophenyl)ethan-1-one]	–
12.5 (≈ 28.2 µM)	12.5 (≈ 28.2 µM)	25 (≈ 56.4 µM)	25 (≈ 56.4 µM)	259.8	–	Cn1c(SCC(=O)c2ccc(F)cc2)nnc1-c1ccc(-c2nc3ccccc3[nH]2)cc1 [Compound 5c, 2-((5-(4-(1H-Benzimidazol-2-yl)phenyl)-4-methyl-4H-1,2,4-triazol-3-yl)thio)-1-(4-fluorophenyl)ethan-1-one]	–
12.5 (≈ 27.2 µM)	12.5 (≈ 27.2 µM)	25 (≈ 54.4 µM)	25 (≈ 54.4 µM)	260	–	Cn1c(SCC(=O)c2ccccc2)nnc1-c1ccc(-c2nc3ccc(Cl)cc3[nH]2)cc1 [Compound 5k, 2-((5-(4-(6-Chloro-1H-benzimidazol-2-yl)phenyl)-4-methyl-4H-1,2,4-triazol-3-yl)thio)-1-phenylethan-1-one]	–
50 (≈ 105 µM)	25 (≈ 52.7 µM)	25 (≈ 52.7 µM)	50 (≈ 105 µM)	242.6	–	CCn1c(SCC(=O)c2ccc(Cl)cc2)nnc1-c1ccc(-c2nc3ccccc3[nH]2)cc1 [Compound 5g, 2-((5-(4-(1H-Benzimidazol-2-yl)phenyl)-4-ethyl-4H-1,2,4-triazol-3-yl)thio)-1-(4-chlorophenyl)ethan-1-one]	–
12.5 (≈ 25.3 µM)	6.25 (≈ 12.6 µM)	6.25 (≈ 12.6 µM)	12.5 (≈ 25.3 µM)	236.9	–	Cn1c(SCC(=O)c2ccc(Cl)cc2)nnc1-c1ccc(-c2nc3ccc(Cl)cc3[nH]2)cc1 [Compound 5l, 2-((5-(4-(6-Chloro-1H-benzimidazol-2-yl)phenyl)-4-methyl-4H-1,2,4-triazol-3-yl)thio)-1-(4-chlorophenyl)ethan-1-one]	–
25 (≈ 50.6 µM)	25 (≈ 50.6 µM)	50 (≈ 101 µM)	50 (≈ 101 µM)	234.7	–	Cn1c(SCC(=O)c2ccc(Cl)cc2Cl)nnc1-c1ccc(-c2nc3ccccc3[nH]2)cc1 [Compound 5d, 2-((5-(4-(1H-Benzimidazol-2-yl)phenyl)-4-methyl-4H-1,2,4-triazol-3-yl)thio)-1-(2,4-dichlorophenyl)ethan-1-one]	–
50 (≈ 109 µM)	25 (≈ 54.4 µM)	50 (≈ 109 µM)	50 (≈ 109 µM)	280.6	–	Cn1c(SCC(=O)c2ccc(Cl)cc2)nnc1-c1ccc(-c2nc3ccccc3[nH]2)cc1 [Compound 5b, 2-((5-(4-(1H-Benzimidazol-2-yl)phenyl)-4-methyl-4H-1,2,4-triazol-3-yl)thio)-1-(4-chlorophenyl)ethan-1-one]	–
12.5 (≈ 24.6 µM)	6.25 (≈ 12.3 µM)	12.5 (≈ 24.6 µM)	12.5 (≈ 24.6 µM)	252.2	–	CCn1c(SCC(=O)c2ccc(Cl)cc2)nnc1-c1ccc(-c2nc3ccc(Cl)cc3[nH]2)cc1 [Compound 5q, 2-((5-(4-(6-Chloro-1H-benzimidazol-2-yl)phenyl)-4-ethyl-4H-1,2,4-triazol-3-yl)thio)-1-(4-chlorophenyl)ethan-1-one]	did not show strong activity
12.5 (≈ 26.2 µM)	12.5 (≈ 26.2 µM)	12.5 (≈ 26.2 µM)	6.25 (≈ 13.1 µM)	252.9	1.56 to 3.12 (≈ 3.26 to 6.53 µM)	Cn1c(SCC(=O)c2ccc(Cl)cc2)nnc1-c1ccc(-c2nc3ccc(F)cc3[nH]2)cc1 [Compound 5v, 1-(4-Chlorophenyl)-2-((5-(4-(6-fluoro-1H-benzimidazol-2-yl)phenyl)-4-methyl-4H-1,2,4-triazol-3-yl)thio)ethan-1-one]	did not show strong activity
100 (≈ 235 µM)	100 (≈ 235 µM)	100 (≈ 235 µM)	100 (≈ 235 µM)	269.5	–	Cn1c(SCC(=O)c2ccccc2)nnc1-c1ccc(-c2nc3ccccc3[nH]2)cc1 [Compound 5a, 2-((5-(4-(1H-Benzimidazol-2-yl)phenyl)-4-methyl-4H-1,2,4-triazol-3-yl)thio)-1-phenylethan-1-one]	–
25 (≈ 54.2 µM)	12.5 (≈ 27.1 µM)	25 (≈ 54.2 µM)	25 (≈ 54.2 µM)	256.2	–	Cn1c(SCC(=O)c2ccc(F)cc2F)nnc1-c1ccc(-c2nc3ccccc3[nH]2)cc1 [Compound 5e, 2-((5-(4-(1H-Benzimidazol-2-yl)phenyl)-4-methyl-4H-1,2,4-triazol-3-yl)thio)-1-(2,4-difluorophenyl)ethan-1-one]	–
